# How the values were obtained:
# [1] = system: mice; test: Feeding experiments in mice (1-h food intake); type: in vivo, mouse; details: for food intake, GLP-1 preadministration before ghrelin: GLP-1 3 nmol i.p. 30 min before ghrelin 1.5 nmol i.p., n = 8
# [2] = Pharmacokinetics analysis: plasma profiles of ghrelin and GLP-1 in rats; details: i.v. into femoral vein, peptide administered first (GLP-1 3 nmol, ghrelin 1.5 nmol), GLP-1 by active ELISA, ghrelin by enzyme immunoassay
# Procedure: Blood was withdrawn from the right jugular vein at: 1, 2.5, 5, 10, 20, 30, 32.5, 35, 40, 50, and 60 min after the first injection. Blood was collected into tubes containing 1.25 mg EDTA and aprotinin (500 kallikrein-inhibiting units/ml blood) (Wako Pure Chemical Industries), and all samples were centrifuged within 2 h of collection. […] For ghrelin assay, 1 M HCl (100 µl/ml) was added to the plasma. All samples were stored at − 70 °C until analysis.
# [3] = system: NG neurons; test: Calcium response in single neurons isolated from NG (Fura-2); type: cell-based, mouse
# Procedure: Bilateral NGs resected from mice were immersed in hibernateA media (BrainBits). Each ganglion was cut into five pieces, placed in HibernateA minus Ca^2+ media (BrainBits) containing 1 mg/ml collagenase/dispase (Roche Diagnostics) and incubated for 90 min at 37 °C. Neurons were dispersed by gentle titration through pipettes and they were washed three times with fresh NbActive4 media (BrainBits) and plated onto poly-D-lysine/laminin (BD Bioscience)-coated coverslips, followed by incubation (5% CO2 in air at 37 °C) for 24 h. Cultures were rinsed in 10 mM phosphate buffered saline (PBS) and fixed with 4% paraformaldehyde (PFA) in phosphate buffer (PB). Ganglion neurons were incubated with the first primary antibodies; anti-GLP-1R or anti-GHSR at 4 °C overnight, and then with the second primary antibodies; anti-GHSR or anti-Pan Neuronal Marker (Supplementary Table S1) at 4 °C overnight. They were then reacted with corresponding Alexa Fluor 488- or 594-conjugated secondary IgG (Supplementary Table S1) at RT for 1 h. Neurons were observed under a fluorescence microscope (Olympus).
# Ca^2+ imaging was performed under continuous perfusion of NG neurons with Krebs–Ringer-Henseleit buffer (Composition in mmol L^−1: NaCl 119, KCl 4.74, CaCl2 2.54, MgCl2 1.19, KH2PO4 1.19, NaHCO3 25, HEPES 10, pH 7.4) at a flow rate of 600 μl/min at 37 °C. NG neurons were loaded with 1 µM Fura-2 acetoxymethyl ester (Dojindo Labs) in NbActive4 media at 37 °C for 30 min. For Ca^2+ measurements in an integrated fluorescence microscope (Keyence BZ-X700), images were captured at 10-s intervals; 340- and 380-nm excitation filters were used for Fura-2-AM dual-wavelength excitation ratio imaging. NG neurons were stimulated with 10 nM either ghrelin or GLP-1, and 10 min later stimulated with the other peptide. At the end of experiments, cells were exposed to 100 mM KCl (Nacalai Tesque) for 2 min. […] All data were expressed as percent changes from the average of the 340/380 fluorescence ratio in response to ghrelin or GLP-1.
# All neurons collected in retrograde tracing studies and used to assess calcium response and patch-clamp recording were picked up by the UnipicK + system (NeuroInDx) immediately after each measurement. RNA was isolated from single neurons with PicoPure RNA Isolation Kit (Applied Biosystems). qRT-PCR (primer sets, Supplementary Table S2) was conducted with SYBR Premix Ex Taq (2 ×) (Takara Bio Inc.) on a Thermal Cycler Dice Real-Time System II (Takara Bio Inc.). In the retrograde tracer studies, percentage of stomach-innervating NG neurons expressing Ghsr or Glp1r were analysed. In the patch-clamp recording, only Ghsr^+ Glp1r^+ neuron cells were used for the final analysis.
# [4] = system: NG neurons; test: Whole-cell voltage-clamp (patch-clamp) of NG neurons; type: cell-based, mouse; details: whole-cell voltage clamp -80 to 40 mV, 10 nM peptide, Ghsr- and Glp1r-expressing NG neurons, n = 10
# Procedure: NG neurons were perfused in the bath solution (Composition in mmol L^−1: NaCl 126.2, KCl 3.1, MgCl2 2, CaCl2 2, HEPES 10, glucose 10; pH 7.39, osmolarity 320 mOsm) with 10 nM ghrelin or 10 nM GLP-1. Whole-cell recordings were performed using patch pipettes of 3.5–5 MΩ resistance backfilled with a solution (Composition in mmol L^−1: K gluconate 125, KCl 8, MgCl2 4, HEPES 10, ATP 2, GTP 0.4, Na2-creatine phosphate 5; pH 7.23, osmolarity 300 mOsm). After obtaining a giga-seal, membrane access resistance was monitored for 5–10 min until it became stable at 10 MΩ or less. Data were acquired from isolated vagal sensory neurons of mice in Axopatch 1D amplifier (Molecular Devices) filtered at 1 kHz. Signals were digitised in analogue-to-digital converter (Axon Digidata 1322A; Molecular Devices), and analysed on a computer running pCLAMP 10 software (Molecular Devices).
# All neurons collected in retrograde tracing studies and used to assess calcium response and patch-clamp recording were picked up by the UnipicK + system (NeuroInDx) immediately after each measurement. […] In the retrograde tracer studies, percentage of stomach-innervating NG neurons expressing Ghsr or Glp1r were analysed. […]
# [5] = system: gastric vagal afferent; test: Multi-unit nerve discharge of the gastric vagal afferent; type: in vivo, rat; details: anaesthetised rats, i.v., n = 3
# Procedure: Multi-unit neural discharge in gastric vagal afferent fibres was recorded extracellularly. Rats were anesthetised by an i.p. injection of urethane (1 g/kg) (Sigma-Aldrich). The electrophysiological study was performed entirely under anaesthetisation as described previously. After the gastric branch of the vagal nerve was visualised, we placed filaments isolated from the peripheral cut end of the ventral branch for the recording of afferent nerve activity via a pair of silver wire electrodes connected through an alternating current-coupled differential amplifier (ER-1; Cygnus Technology) to PowerLab (AD Instruments). The nerve activities were recorded and analysed using LabChart v8 software (AD Instruments). […] After the first administration, nerve discharges from the multi-unit afferents were analysed for 60 min.
# [6] = system: Fos expression in NG, NTS and ARC neurons; test: Fos immunohistochemical staining (NG, NTS, ARC); type: in vivo, mouse; details: mice
# Procedure: The NG and brain were removed, fixed overnight in a fixative solution containing 4% PFA, cryoprotected in 0.1 M PB containing 20% sucrose and embedded in Tissue-Tek O.C.T. compound. The 10 µm sections were mounted on slides permeabilized with 0.3% triton X-100 in PBS (PBS-T). After permeabilization, antigens were retrieved by heating the sections in an autoclave for 1 h at 70 °C with a Histo VT one (Nakalai Teaque, Kyoto, Japan). All sections were blocked with 5% goat-serum in PBS-T. Three specimens each of NG, NTS and ARC were incubated for 48 h at 4 °C with c-Fos antiserum (Supplementary Table S1), then incubated for 1 h with Alexa Fluor 488- (NTS and ARC) or 594- (NG) conjugated anti-rabbit IgG at room temperature (Supplementary Table S1). To stain nuclei of the neurons, the specimens from NG were incubated with Alexa Fluor 488-conjugated Anti-NeuN IgG (Supplementary Table S1) at RT for 1 h, and the specimens from NTS and ARC were incubated overnight with Alexa Fluor 555-conjugated anti-NeuN IgG (Supplementary Table S1) at 4 °C. Images of immunofluorescence staining were observed using a Nikon C2 + confocal laser scanning microscope (Nikon, Tokyo, Japan). Fos-positive neurons in three specimens from each animal were counted using ImageJ.
# [7] = system: rats; test: Feeding experiments in rats (1-h food intake); type: in vivo, rat; details: GLP-1 3 nmol i.v.
# Procedure: First, rats fasted for 8 h (02:00–10:00) received an i.v. injection of human GLP-1 (3 nmol/100 µl saline, CS Bio) or saline at 10:00, then they were administered human ghrelin (1.5 nmol/100 µl saline, Peptide Institute) or saline injection at 10:30. Food intake was determined from 10:30 to 11:30. Secondly, rats fed ad libitum received an i.v. ghrelin (1.5 nmol/100 µl) or saline injection at 10:00 or 19:30, then they were administered GLP-1 (3 nmol/100 µl) or saline injection at 10:30 or 20:00. Food intake was measured from 10:30 to 11:30 or 20:00 to 21:00. Thirdly, mice fasted for 8 h (02:00–10:00) received an i.p. injection of ghrelin (1.5 nmol/100 µl saline) or saline at 10:00, then they were administered human GLP-1 (3 nmol/100 µl saline) or saline at 10:30 and 1 h food intake (10:30–11:30) was measured. Fourthly, Ghsr^−/− and their wild-type mice fasted for 12 h (22:00–10:00) were administered ghrelin (1.5 nmol/50 µl saline, i.p.) at 10:00, then they were administered GLP-1 (3 nmol/50 µl saline, i.p.) or saline injection at 10:30, and food intake was measured from 10:30 to 11:30. Finally, Glp1r ^−/− and their wild-type mice were administered GLP-1 (3 nmol/50 µl, i.p.) or saline at 10:00, subsequently given a ghrelin (1.5 nmol/50 µl, i.p.) or saline injection at 10:30, food intake was measured from 10:30 to 11:30. […]
structure (smiles),measurement,setting,value
"CC[C@H](C)[C@H](NC(=O)[C@H](Cc1ccccc1)NC(=O)[C@H](CCC(=O)O)NC(=O)[C@H](CCCCN)NC(=O)[C@H](C)NC(=O)[C@H](C)NC(=O)[C@H](CCC(N)=O)NC(=O)CNC(=O)[C@H](CCC(=O)O)NC(=O)[C@H](CC(C)C)NC(=O)[C@H](Cc1ccc(O)cc1)NC(=O)[C@H](CO)NC(=O)[C@H](CO)NC(=O)[C@@H](NC(=O)[C@H](CC(=O)O)NC(=O)[C@H](CO)NC(=O)[C@@H](NC(=O)[C@H](Cc1ccccc1)NC(=O)[C@@H](NC(=O)CNC(=O)[C@H](CCC(=O)O)NC(=O)[C@H](C)NC(=O)[C@@H](N)Cc1c[nH]cn1)[C@@H](C)O)[C@@H](C)O)C(C)C)C(=O)N[C@@H](C)C(=O)N[C@@H](Cc1c[nH]c2ccccc12)C(=O)N[C@@H](CC(C)C)C(=O)N[C@H](C(=O)N[C@@H](CCCCN)C(=O)NCC(=O)N[C@@H](CCCNC(=N)N)C(N)=O)C(C)C [GLP-1, glucagon-like peptide 1]","food intake, GLP-1 preadministration before ghrelin",[1]; Glp1r-/- mice fed ad libitum,did not affect ghrelin-induced feeding
same,feeding effect of the peptide administered second,"[1]; mice, two peptides in a 60-min interval, peptide given 60 min after the first peptide",exhibited its proper effect
same,"food intake, GLP-1 preadministration before ghrelin",[1]; wild-type mice (of Glp1r-/-) fed ad libitum,abolished ghrelin-induced feeding
same,time at which plasma concentration returned to the base,[2],30 min
same,"calcium response, GLP-1 after ghrelin","[3]; Glp1r+Ghsr+ neurons, 10 nM GLP-1 10 min after 10 nM ghrelin, n = 10",failed to evoke calcium response
same,calcium response,"[3]; Glp1r+Ghsr+ neurons, 10 nM GLP-1 given first, n = 10",evoked calcium response
same,calcium response,"[3]; Glp1r+Ghsr- neurons, 10 nM GLP-1",evoked calcium response
same,calcium response,"[3]; Glp1r-Ghsr- neurons, 10 nM GLP-1",not
same,current in I/V relationship,[4],generated depolarizing current
same,gastric vagal afferent activity,"[5]; ghrelin 1.5 nmol or GLP-1 1 nmol, peptide given first",enhanced it
same,"gastric vagal afferent activity, second peptide","[5]; peptide given 30 min after the other peptide (ghrelin 1.5 nmol, GLP-1 1 nmol)",GLP-1-enhanced activity was not observed
same,ghrelin-induced Fos in the ARC after GLP-1 preadministration,"[6]; GLP-1 3 nmol i.p. 30 min before ghrelin 1.5 nmol i.p., n = 4",abolished ghrelin-induced Fos in the ARC
same,Fos-positive neurons in left NG,"[6]; GLP-1 3 nmol i.p. alone, n = 3",70.5%
same,Fos-positive neurons in right NG,"[6]; GLP-1 3 nmol i.p. alone, n = 3",71.0%
same,Fos in the NTS,"[6]; GLP-1 3 nmol i.p. alone, n = 4",induced Fos in the NTS
same,food intake,"[7]; 8-h fasted rats, compared with saline, n = 8",significantly reduced food intake
same,food intake,"[7]; rats fed ad libitum, dark phase (20:00-21:00), n = 6",suppressed feeding

# Reference: publication PMC7595212, “Functional interaction between Ghrelin and GLP-1 regulates feeding through the vagal afferent system” (Scientific Reports, 2020)
